This is an account of results in patent US20140072662A1, “Andrographis Paniculata Compositions and Methods for Treatment of Addictions” (Omeros Corporation, priority 2012, published 2014).

The conditions of series [1]: cited from earlier work.
Series [2] has as its system LPS-stimulated macrophages. The settings on record: cited from earlier work.
The conditions of series [3]: in vivo, cited from earlier work.
Series [4] concerns rat model of cerebral ischemia. The conditions noted are these: in vivo; cited from earlier work.
For series [5] the following is noted: clinical study; cited from earlier work.
Series [6] concerns msP rats. The series can be described thus: Two-bottle choice paradigm, voluntary 10% alcohol intake in msP rats. In kind it is in vivo, rat. The conditions noted are these: 3 days. The text has this:
Male genetically selected alcohol-preferring rats were used. They were bred at the Department of Experimental Medicine and Public Health of the University of Camerino (Marche, Italy) for 64 generations from Sardinian alcohol-preferring (sP) rats of the 13th generation, provided by the Department of Neurosciences of the University of Cagliari (Colombo et al, 2006). They are referred to as Marchigian sP (msP) rats (Ciccocioppo et al, 2006). At the time of the experiments their body weight ranged between 300 and 350 g. They were kept in single cages in a room with a reverse 12:12 h light/dark cycle (lights off at 9:30 a.m.), temperature of 20-22° C. and humidity of 45-55%. […]
A widely used method for testing fluid preference is the two-bottle choice paradigm, in which water and 10% (v/v) alcohol solution were offered in graduated drinking tubes equipped with metallic drinking spouts and their consumption was measured by reading the volume consumed from the graduated tubes. Food intake was measured by weighing the food containers and taking into account spillage. Alcohol, water and food intakes are expressed as g/kg to reduce the influence of differences in body weight. […]
Alcohol, water and food intake were monitored daily at 0.5, 2, 8 and 24 hours. For all the experiments performed, intakes were recorded for several additional days after the end of the drug treatment period. […]

The subject of series [7] is msP rats. The series can be described thus: Central PPAR antagonist GW9662 on andrographolide-induced reduction of alcohol intake in msP rats. The settings on record: andrographolide 10 mg/kg, 6 consecutive days; 2, 8 and 24 hours. In kind it is in vivo, rat. As to the method: GW9662, purchased from Tocris (Bristol, UK), was dissolved in 10% DMSO and 3% Tween 80 and the final volume (5 μg/μl) was adjusted adding distilled water. GW9662 was injected ICV in a volume of 1 μl per rat by means of a stainless-steel injector 2.5 mm longer than the guide cannula, so that its tip protruded into the ventricle.
A 22-gauge guide cannula for intracerebroventricular (ICV) drug injections was stereotaxically implanted into the lateral cerebroventricle with the following coordinates: anteroposterior (AP)=1.0; lateral (L)=1.8; ventral (V)=2.0 with reference to bregma.
A widely used method for testing fluid preference is the two-bottle choice paradigm, in which water and 10% (v/v) alcohol solution were offered in graduated drinking tubes equipped with metallic drinking spouts and their consumption was measured by reading the volume consumed from the graduated tubes. Food intake was measured by weighing the food containers and taking into account spillage. Alcohol, water and food intakes are expressed as g/kg to reduce the influence of differences in body weight.
To examine whether the effect of andrographolide on alcohol intake is mediated by brain PPAR receptors, another group of msP rats (N=31) was treated ICV with 5 μg/rat of the PPAR antagonist GW9662 and then injected with andrographolide (10 mg/kg) or its vehicle. In a between-subject design each group of animals (N=7-8/group) received a different drug dose for 6 consecutive days. GW9662 or its vehicle were administered twice daily at 12 hours and 30 minutes before the beginning of the dark period of the light-dark cycle. Andrographolide was given immediately after GW9662 administrations.
Alcohol, water, and food intake was recorded at 0.5, 2, 8 and 24 hours from the moment that alcohol was made available.

In the next series the test system is Wistar rats. In words: Yohimbine-induced reinstatement of nicotine seeking in Wistar rats. Type of series: in vivo, rat. The settings on record: yohimbine 1.25 mg/kg IP; p<0.001. As to the method: Animals are anesthetized by intramuscular injection of 100-150 μl of a solution containing tiletamine cloridrate (58.17 mg/ml) and zolazepam cloridrate (57.5 mg/ml). For IV surgery, incisions are made to expose the right jugular vein. A catheter made from micro-renathane tubing (I.D.=0.020 inches, O.D.=0.037 inches) is subcutaneously positioned between the vein and the back. After insertion into the vein, the proximal end of the catheter is anchored to the muscles underlying the vein with surgical silk. The distal end of the catheter is attached to a stainless-steel cannula bent at a 90° angle. The cannula is inserted in a support made by dental cement on the back of the animals covered with a plastic cap. […] Body weights are monitored every day and catheter patency is confirmed approximately every 3 days with an injection of 0.2-0.3 ml of thiopental sodium (250 mg/ml) solution. […]
The day after the last extinction session, in a within subject counterbalanced design animals are given Andrographis Paniculata extract OS at the doses of 0, 150; 450 mg/kg, given 1 hour prior to administration of yohimbine (1.25 mg/kg) or its vehicle. 30 minutes following the administration of yohimbine, animals (N=15) are placed in the self-administration apparatus, and lever pressesis recorded for 2 hours. […]

For series [8], the system named is msP rats. In words: Yohimbine-induced reinstatement of alcohol seeking in msP rats. Type of series: in vivo, rat. The conditions noted are these: yohimbine 1.25 mg/kg i.p.; p<0.001. As for the experimental part:
The study was conducted using standard operant chambers (Med Associate, St Albans, Vt.) located in sound-attenuating, ventilated environmental cubicles. Each chamber was equipped with a drinking reservoir (volume capacity: 0.30 ml) positioned 4 cm above the grid floor in the centre of the front panel of the chamber, and two retractable levers located 3 cm to the right or to the left of the drinking receptacle. Auditory and visual stimuli were presented via a speaker and a light located on the front panel. A microcomputer controlled the delivery of fluids, presentation of auditory and visual stimuli, and recording of the behavioral data.
During the first 6 days of training, rats were allowed to lever-press for a 10% (v/v) alcohol solution containing 0.2% (w/v) saccharin solution, on a FR-1 schedule. In the following days, msP rats were trained to self-administer 10% alcohol solution (v/v) on a FR-1, time out 5 second (TO 5 s.) schedule of reinforcement. The TO period was signalled by illumination of a white house light above the right lever for 5 s. 10% (v/v) alcohol self-administration continued until stable baseline of responding was achieved.
After the last alcohol self-administration session, animals were subjected to 30-min extinction sessions. […]

Take `C=C1CC[C@@H]2[C@](C)(CO)[C@H](O)CC[C@@]2(C)[C@@H]1C/C=C1/C(=O)OC[C@H]1O` [andrographolide]: the aqueous solubility entry in [1] was “low”. Moreover, the “production of TNF-α, IL-1β and IL-12” value in series [2] is “inhibits”. Also, the oral bioavailability result in series [3] (po) is reported as “low”. The “binding to plasma proteins” value in series [3] is on record as “high”. Also, the neuroprotective effects result in series [4] is given as “clear neuroprotective effects”. Moreover, the “ability to cross the brain-blood barrier” value in [5] is reported as “cross the brain-blood barrier”. In addition, the voluntary alcohol intake entry was “a statistical difference from controls was observed the last day of treatment for all the time points” in the series on msP rats [6] (andrographolide 5 mg/kg i.p. twice daily); “the effect appeared from the second day of treatment (Day 3) and remained significant throughout the treatment period” in the series on msP rats [6] (andrographolide 10 mg/kg i.p. twice daily (12 h and 30 min before dark period)). The alcohol drinking result with msP rats [7] was “reduced alcohol consumption starting from the second day and for the entire duration of treatment”.
For the compound `COC(=O)[C@@H]1[C@H]2C[C@H]3c4[nH]c5ccccc5c4CCN3C[C@@H]2CC[C@@H]1O` [yohimbine], in the series on Wistar rats, the “reinstatement of responding for nicotine vs extinction” value is “significant reinstatement of responding”. Also, the “reinstatement of operant response for alcohol vs extinction” value in the series on msP rats [8] was “significantly reinstated the operant response for alcohol”.
